According to publication PMC11996864, “A small-molecule inhibitor of BCL10-MALT1 interaction abrogates progression of diffuse large B cell lymphoma” (The Journal of Clinical Investigation, 2025):
Where “and” joins values, the source holds several entries; their conditions need not be identical. Equal values may be shown once.

How the values were obtained:
OCI-Ly3 cells = test: cells; set-up: species or system TMD8 or OCI-Ly3; Inhibition of spontaneous IL-10 secretion from ABC-DLBCL cells, human IL-10 ELISA of supernatants; conditions: Homo sapiens, OCI-Ly3, 20 h; IL-10 secretion; read-out: IC50 (µM) IL-10 inhibition
Experimental: Cytokine ELISAs. Cytokines in cell culture supernatants were measured 20-24h after treatment with 0, 0.01, 0.03, 0.1, 0.3, 1, or 3 µM of compounds using the following ELISA kits according to the manufacturer’s instructions: Human IL-2 ELISA (BioLegend Cat# 431804), Human IL-6 ELISA (BioLegend Cat# 430504), and Human IL-10 ELISA (BioLegend Cat# 430604). TMD8 and OCI-Ly3 cells were treated with specific doses of compounds in serum-free media for 20 hours. Jurkat T cells were pretreated with specific doses of compounds for 8 hours in serum-free media, then stimulated with PMA/ionomycin for 16 hours prior to the collection of supernatants. Mouse splenocytes were isolated from spleens of C57/BL6 mice by passing spleens through a 70 micron filter followed by red blood cell lysis using ACK lysing buffer (Quality Biologics, Cat# 118-156-101). […] Supernatant was collected at 24 hours and mouse IL-2 levels were analyzed via ELISA (R&D Systems, Cat# DY402-05). IL-6 and IL-10 are NF-κB–induced cytokines that promote the proliferation and survival of malignant B cells through both autocrine and paracrine mechanisms ([44]), and are negative prognostic factors in ABC-DLBCL ([45], [46]). ABC-DLBCL cell lines spontaneously secrete substantial levels of IL-6 and IL-10, whereas GCB-DLBCL cell lines express only a negligible amount of these cytokines ([24]). […] The IC50 for inhibition of cytokine secretion by each compound in each cell line is reported in Supplemental Table 1.  Figure 4 M1i-124 and M1i-124d1 inhibit MALT1 protease and scaffolding functions, and MALT1-dependent cytokine secretion, in ABC-DLBCL cells. (A and B) Effect of 1 μM compound pretreatment on constitutive RelB cleavage (A) and IκB phosphorylation (B) within TMD8 cells. Representative Western blots are shown along with quantification (mean ± SEM; n = 2). (C) IL6 and IL10 mRNA levels in TMD8 cells treated with 1 μM M1i-124 or M1i-124d1 (mean ± SEM; n = 6). […] Statistical analyses were performed using 1-way ANOVA and Dunnett’s multiple-comparison test. **P < 0.01, ***P < 0.001, ****P < 0.0001.

[1] = test system: IL-2 secretion from primary mouse splenocytes; test: Secreted IL-2 ELISA, stimulated primary splenocytes; assay type: cell-based; conditions: for IL-2 protein level (% of control): Suppl Fig. 4B
Source text: Plasmids. Plasmids for transfection were verified with Sanger Sequencing. Unless otherwise indicated, plasmids were made by subcloning cDNA fragments from constructs described in previous publications, as noted, and/or site directed mutagenesis. Plasmids in the pcDNA3 or pcDNA3.1 backbone include HA-MALT1(isoform B) (2), HA-MALT1(DD+Ig1-2) (aa 1- […]
MALT1(Ig1-2) V189R, HA-MALT1(Ig1-2) W203_Q205delinsAAA (Vector Builder), HA-MALT1(Ig1-2) H257_Q259delinsAAA (Vector Builder), HA-MALT1(Ig1-2)
P254_P256delinsAAA (Vector Builder), HA-MALT1(Ig1-2) H269_T271delinsAAA (Vector Builder), HA-MALT1(Ig1-2) K272_L274delinsAAA (Vector Builder), HA-MALT1 V189R (Vector Builder), HA-MALT1 V81R, HA-BCL10 (GeneCopoeia, Cat# M0769-M07), HA-BCL10 E53R, Myc-BCL10 (previously called CIPER) (3), Myc-BCL10 E53R, Myc-RICK (4), Myc-MAVS (subcloned from FLAG-MAVS (5)), and empty vector pCDNA3.1HA as a control.
ELISA-based protein-protein interaction assay. On a high-binding 96-well ELISA microplate (Greiner Cat# 655061), 100 ng of His-tagged recombinant human full-length BCL10 protein (Novus Cat# NBP1-99064) or in 100 µl PBS was allowed to adhere overnight at 4°C. The plate was blocked with 5% BSA in PBS for 1 hour at room temperature. After washing twice with PBS-T, a mixture of 100 ng of GST-tagged recombinant human full-length MALT1 protein (Novus Biologicals Cat# H00010892-P01) and compound that was preincubated for 1 hour in 100 μl PBS was added to the plate for 1 hour at room temperature. After washing three times with PBS-T, anti-MALT1 antibody (Cell Signaling Technology, Cat# 2494) in 5% BSA in PBS was added at 1:1000 dilution for 1 hour at room temperature. After washing three times with PBS-T, HRP-conjugated secondary antibody in 5% BSA in PBS was added at 1:5000 dilution for 1 hour at room temperature. After washing three times with PBS-T, 100 µl of 3,3’,5,5’-tetramethylbenzidine (TMB) substrate solution (Thermo Scientific, Cat# 34028) was added for up to 15 minutes, and 100 µl of 2 M sulfuric acid was added to stop the reaction. The plate was read at 450 nm using a spectrophotometer (Molecular Devices SpectraMax i3). The MyoD1/ID ELISA was performed as above except that 100 ng of recombinant human His-tagged MyoD1 (Proteintech, Cat# Ag13186) was plated overnight at 4°C prior to the addition of 100 ng of recombinant human GST-ID1 (Proteintech, Cat# Ag13359) preincubated to with compounds. The anti-GST antibody (clone 26H1, Cell signaling Technology, Cat #2624) was used to detect bound ID1.
Cytokine ELISAs. Cytokines in cell culture supernatants were measured 20-24h after treatment with 0, 0.01, 0.03, 0.1, 0.3, 1, or 3 µM of compounds using the following ELISA kits according to the manufacturer’s instructions: Human IL-2 ELISA (BioLegend Cat# 431804), Human IL-6 ELISA (BioLegend Cat# 430504), and Human IL-10 ELISA (BioLegend Cat# 430604). TMD8 and OCI-Ly3 cells were treated with specific doses of compounds in serum-free media for 20 hours. Jurkat T cells were pretreated with specific doses of compounds for 8 hours in serum-free media, then stimulated with PMA/ionomycin for 16 hours prior to the collection of supernatants.
Mouse splenocytes were isolated from spleens of C57/BL6 mice by passing spleens through a 70 micron filter followed by red blood cell lysis using ACK lysing buffer (Quality Biologics, Cat# 118-156-101). […]
Mouse T-Activator CD3/C28. Supernatant was collected at 24 hours and mouse IL-2 levels were analyzed via ELISA (R&D Systems, Cat# DY402-05).

Structure (SMILES): COc1ccc(CNS(=O)(=O)c2ccc(Cc3ccc(S(=O)(=O)NCc4ccc(OC)cc4)cc3)cc2)cc1 [M1i-124d1]
- IC50 (OCI-Ly3 cells): 2.2 µM

Structure (SMILES): CN1CCCC(CN2c3ccccc3Sc3ccccc32)C1 (stereo not shown) [Mepazine, mepazine, reference compound]
- IL-2 protein level (% of control) ([1]; CD3/CD28 treated, 1 uM): 96.0182 % of control and 76.5551 % of control
- IL-2 protein level (% of control) ([1]; PMA/Iono treated, 1 uM): 66.5904 % of control and 66.2291 % of control

Structure (SMILES): O=S(=O)(NCc1ccc2c(c1)OCO2)c1ccc(Cc2ccc(S(=O)(=O)NCc3ccc4c(c3)OCO4)cc2)cc1 [M1i-124]
- IL-2 secretion from primary mouse splenocytes ([1]; 1 μM, PMA/Iono or anti-CD3/CD28, result in words): reduced IL-2 secretion
- IL-2 protein level (% of control) ([1]; CD3/CD28 treated): 50.4652 % of control and 31.9351 % of control and 38.7736 % of control
- IL-2 protein level (% of control) ([1]; PMA/Iono treated): 60.6294 % of control and 65.2902 % of control and 36.6638 % of control
- IC50 (OCI-Ly3 cells): 0.7 µM
